Measured values as given in US10485235B2, “Aryloxypyrimidinyl ethers as herbicides” (FMC Corporation, priority 2015, dated 2019).

What was measured:
Assay type in all cases: in vivo
kochia (Kochia scoparia) [1] = assay: Test A preemergence, kochia; details: Preemergence, 0 to 100 scale (0 no effect, 100 complete control)
Method in brief: (§1)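 Test chemicals in a solvent/surfactant mixture were applied as a preemergence directed soil spray on seeded loam–sand, or postemergence to plants 2–10 cm tall at the one- to two-leaf stage. After roughly 10 days in a greenhouse, injury was visually rated versus untreated controls on a 0 (no effect) to 100 (complete control) scale.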

rice (Oryza sativa) = assay: Test B flooded paddy test, rice; details: 250 g ai/ha, Flood; visual rating after 13 to 15 days; scale 0 to 100, 0 is no effect, 100 is complete control
Method in brief: (§2)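 Visual injury scored 0 (no effect) to 100 (complete control) relative to controls 13-15 days after treatment in greenhouse. Treatment: test compound added into paddy water of pots flooded 3 cm over soil, holding 2-leaf-stage plants; water level kept constant.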

[2] = tested on: ragweed (common ragweed, Ambrosia elatior); assay: Test A postemergence, ragweed; details: postemergence, 0 to 100 scale, 0 is no effect, 100 is complete control, approximately 10 days
Method in brief: as §1

[3] = tested on: barnyardgrass (Echinochloa crus-galli); assay: Test A preemergence, barnyardgrass; details: Preemergence, 0 to 100 scale (0 no effect, 100 complete control)
Method in brief: as §1

[4] = tested on: barnyardgrass (Echinochloa crus-galli); assay: Test A postemergence, barnyardgrass; details: postemergence, 0 to 100 scale, 0 is no effect, 100 is complete control, approximately 10 days
Method in brief: as §1

[5] = tested on: ryegrass, Italian (Italian ryegrass, Lolium multiflorum); assay: Test A postemergence, Italian ryegrass; details: postemergence, 0 to 100 scale, 0 is no effect, 100 is complete control, approximately 10 days
Method in brief: as §1

[6] = tested on: pigweed (Amaranthus retroflexus); assay: Test A preemergence, pigweed; details: Preemergence, 0 to 100 scale (0 no effect, 100 complete control)
Method in brief: as §1

[7] = tested on: barnyardgrass (Echinochloa crus-galli); assay: Test B flooded paddy test, barnyardgrass; details: 250 g ai/ha, Flood; visual rating after 13 to 15 days; scale 0 to 100, 0 is no effect, 100 is complete control
Method in brief: as §2

[8] = tested on: wheat (Triticum aestivum); assay: Test A postemergence, wheat; details: postemergence, 0 to 100 scale, 0 is no effect, 100 is complete control, approximately 10 days
Method in brief: as §1

[9] = tested on: foxtail, giant (giant foxtail, Setaria faberii); assay: Test A postemergence, giant foxtail; details: postemergence, 0 to 100 scale, 0 is no effect, 100 is complete control, approximately 10 days
Method in brief: as §1

[10] = tested on: ryegrass, Italian (Italian ryegrass, Lolium multiflorum); assay: Test A preemergence, Italian ryegrass; details: Preemergence, 0 to 100 scale (0 no effect, 100 complete control)
Method in brief: as §1

[11] = tested on: ragweed (common ragweed, Ambrosia elatior); assay: Test A preemergence, ragweed; details: Preemergence, 0 to 100 scale (0 no effect, 100 complete control)
Method in brief: as §1

[12] = tested on: ducksalad (Heteranthera limosa); assay: Test B flooded paddy test, ducksalad; details: 250 g ai/ha, Flood; visual rating after 13 to 15 days; scale 0 to 100, 0 is no effect, 100 is complete control
Method in brief: as §2

kochia (Kochia scoparia) [13] = assay: Test A postemergence, kochia; details: postemergence, 0 to 100 scale, 0 is no effect, 100 is complete control, approximately 10 days
Method in brief: as §1

[14] = tested on: pigweed (Amaranthus retroflexus); assay: Test A postemergence, pigweed; details: postemergence, 0 to 100 scale, 0 is no effect, 100 is complete control, approximately 10 days
Method in brief: as §1

[15] = tested on: galium (catchweed bedstraw, Galium aparine); assay: Test A postemergence, galium; details: postemergence, 0 to 100 scale, 0 is no effect, 100 is complete control, approximately 10 days
Method in brief: as §1

[16] = tested on: blackgrass (Alopecurus myosuroides); assay: Test A postemergence, blackgrass; details: postemergence, 0 to 100 scale, 0 is no effect, 100 is complete control, approximately 10 days
Method in brief: as §1

corn (Zea mays) = assay: Test A postemergence, corn; details: postemergence, 0 to 100 scale, 0 is no effect, 100 is complete control, approximately 10 days
Method in brief: as §1

[17] = tested on: sedge, umbrella (small-flower umbrella sedge, Cyperus difformis); assay: Test B flooded paddy test, umbrella sedge; details: 250 g ai/ha, Flood; visual rating after 13 to 15 days; scale 0 to 100, 0 is no effect, 100 is complete control
Method in brief: as §2

[18] = tested on: foxtail, giant (giant foxtail, Setaria faberii); assay: Test A preemergence, giant foxtail; details: Preemergence, 0 to 100 scale (0 no effect, 100 complete control)
Method in brief: as §1

| SMILES | Plant response rating, Kochia (kochia (Kochia scoparia) [1]; 125 g ai/ha) | Plant response rating, Rice (rice (Oryza sativa)) | Plant response rating, Ragweed ([2]; 125 g ai/ha) | Plant response rating, Barnyardgrass ([3]; 125 g ai/ha) | Plant response rating, Barnyardgrass ([4]; 125 g ai/ha) | Plant response rating, Ryegrass, Italian ([5]; 125 g ai/ha) | Plant response rating, Pigweed ([6]; 125 g ai/ha) | Plant response rating, Barnyardgrass [7] | Plant response rating, Wheat ([8]; 125 g ai/ha) | Plant response rating, Foxtail, Giant ([9]; 125 g ai/ha) | Plant response rating, Ryegrass, Italian ([10]; 125 g ai/ha) | Plant response rating, Ragweed ([11]; 125 g ai/ha) | Plant response rating, Ducksalad [12] | Plant response rating, Kochia (kochia (Kochia scoparia) [13]; 125 g ai/ha) | Plant response rating, Pigweed ([14]; 125 g ai/ha) | Plant response rating, Galium ([15]; 125 g ai/ha) | Plant response rating, Blackgrass ([16]; 125 g ai/ha) | Plant response rating, Corn (corn (Zea mays); 125 g ai/ha) | Plant response rating, Sedge, Umbrella [17] | Plant response rating, Foxtail, Giant ([18]; 125 g ai/ha) | further results |
| --- | --- | --- | --- | --- | --- | --- | --- | --- | --- | --- | --- | --- | --- | --- | --- | --- | --- | --- | --- | --- | --- |
| FC(F)(F)c1ccc(COc2c(Br)cccc2Oc2ncc(Cl)cn2)cc1 [Compound 19] | 0 | 0 | 10 | 0 | 0 | 0 | 0 | 0 | 0 | 0 | 0 | 0 | 0 | 10 | 20 | 0 | 0 | 10 | 0 | 10 | Plant response rating, Kochia (kochia (Kochia scoparia) [1]; 500 g ai/ha): 0; Plant response rating, Ragweed ([2]; 500 g ai/ha): 20; Plant response rating, Barnyardgrass ([3]; 500 g ai/ha): 60; Plant response rating, Barnyardgrass ([4]; 500 g ai/ha): 20; Plant response rating, Ryegrass, Italian ([5]; 500 g ai/ha): 0; Plant response rating, Pigweed ([6]; 500 g ai/ha): 0; Plant response rating, Wheat ([8]; 500 g ai/ha): 20; Plant response rating, Foxtail, Giant ([9]; 500 g ai/ha): 20; Plant response rating, Ryegrass, Italian ([10]; 500 g ai/ha): 20; Plant response rating, Ragweed ([11]; 500 g ai/ha): 0; Plant response rating, Kochia (kochia (Kochia scoparia) [13]; 500 g ai/ha): 50; Plant response rating, Pigweed ([14]; 500 g ai/ha): 100; Plant response rating, Galium ([15]; 500 g ai/ha): 30; Plant response rating, Blackgrass ([16]; 500 g ai/ha): 10; Plant response rating, Corn (corn (Zea mays); 500 g ai/ha): 30; Plant response rating, Foxtail, Giant ([18]; 500 g ai/ha): 90 |
| N#Cc1cccc(Oc2ncc(Cl)cn2)c1OCc1ccc(C(F)(F)F)cc1 [Compound 20] | 0 | 0 | 20 | 20 | 10 | 0 | 30 | 0 | 10 | 10 | 0 | 0 | 0 | 50 | 90 | 30 | 0 | 10 | 0 | 90 | Plant response rating, Kochia (kochia (Kochia scoparia) [1]; 500 g ai/ha): 50; Plant response rating, Ragweed ([2]; 500 g ai/ha): 30; Plant response rating, Barnyardgrass ([3]; 500 g ai/ha): 30; Plant response rating, Barnyardgrass ([4]; 500 g ai/ha): 30; Plant response rating, Ryegrass, Italian ([5]; 500 g ai/ha): 20; Plant response rating, Pigweed ([6]; 500 g ai/ha): 100; Plant response rating, Wheat ([8]; 500 g ai/ha): 10; Plant response rating, Foxtail, Giant ([9]; 500 g ai/ha): 30; Plant response rating, Ryegrass, Italian ([10]; 500 g ai/ha): 20; Plant response rating, Ragweed ([11]; 500 g ai/ha): 0; Plant response rating, Kochia (kochia (Kochia scoparia) [13]; 500 g ai/ha): 100; Plant response rating, Pigweed ([14]; 500 g ai/ha): 90; Plant response rating, Galium ([15]; 500 g ai/ha): 80; Plant response rating, Blackgrass ([16]; 500 g ai/ha): 20; Plant response rating, Corn (corn (Zea mays); 500 g ai/ha): 20; Plant response rating, Foxtail, Giant ([18]; 500 g ai/ha): 100 |
| N#Cc1cccc(Oc2ncc(Cl)cn2)c1OCc1cccc(Cl)c1 [Compound 21] | 0 | 0 | 10 | 0 | 10 | 0 | 10 | 0 | 0 | 10 | 0 | 0 | 0 | 40 | 50 | 20 | 0 | 10 | 0 | 40 | Plant response rating, Kochia (kochia (Kochia scoparia) [1]; 500 g ai/ha): 30; Plant response rating, Ragweed ([2]; 500 g ai/ha): 20; Plant response rating, Barnyardgrass ([3]; 500 g ai/ha): 10; Plant response rating, Barnyardgrass ([4]; 500 g ai/ha): 20; Plant response rating, Ryegrass, Italian ([5]; 500 g ai/ha): 0; Plant response rating, Pigweed ([6]; 500 g ai/ha): 40; Plant response rating, Wheat ([8]; 500 g ai/ha): 10; Plant response rating, Foxtail, Giant ([9]; 500 g ai/ha): 40; Plant response rating, Ryegrass, Italian ([10]; 500 g ai/ha): 10; Plant response rating, Ragweed ([11]; 500 g ai/ha): 0; Plant response rating, Kochia (kochia (Kochia scoparia) [13]; 500 g ai/ha): 70; Plant response rating, Pigweed ([14]; 500 g ai/ha): 60; Plant response rating, Galium ([15]; 500 g ai/ha): 70; Plant response rating, Blackgrass ([16]; 500 g ai/ha): 20; Plant response rating, Corn (corn (Zea mays); 500 g ai/ha): 20; Plant response rating, Foxtail, Giant ([18]; 500 g ai/ha): 100 |
| N#CCCCOc1c(C#N)cccc1Oc1ncc(Cl)cn1 [Compound 22] | 90 | 0 | 10 | 20 | 0 | 0 | 100 | 0 | 20 | 10 | 0 | 30 | 0 | 90 | 80 | 50 | 0 | 20 | 0 | 90 | Plant response rating, Kochia (kochia (Kochia scoparia) [1]; 31 g ai/ha): 70; Plant response rating, Ragweed ([2]; 31 g ai/ha): 0; Plant response rating, Barnyardgrass ([3]; 31 g ai/ha): 0; Plant response rating, Barnyardgrass ([4]; 31 g ai/ha): 0; Plant response rating, Ryegrass, Italian ([5]; 31 g ai/ha): 0; Plant response rating, Pigweed ([6]; 31 g ai/ha): 80; Plant response rating, Wheat ([8]; 31 g ai/ha): 0; Plant response rating, Foxtail, Giant ([9]; 31 g ai/ha): 0; Plant response rating, Ryegrass, Italian ([10]; 31 g ai/ha): 0; Plant response rating, Ragweed ([11]; 31 g ai/ha): 10; Plant response rating, Kochia (kochia (Kochia scoparia) [13]; 31 g ai/ha): 80; Plant response rating, Pigweed ([14]; 31 g ai/ha): 30; Plant response rating, Galium ([15]; 31 g ai/ha): 20; Plant response rating, Blackgrass ([16]; 31 g ai/ha): 0; Plant response rating, Corn (corn (Zea mays); 31 g ai/ha): 10; Plant response rating, Foxtail, Giant ([18]; 31 g ai/ha): 0 |
| N#CCCCOc1c(F)cccc1Oc1ncc(Cl)cn1 [Compound 24] | 60 | 0 | 10 | 20 | 0 | 0 | 90 | 0 | 0 | 0 | 0 | 0 | 30 | 80 | 40 | 20 | 0 | 0 | 0 | 30 | Plant response rating, Kochia (kochia (Kochia scoparia) [1]; 500 g ai/ha): 100; Plant response rating, Ragweed ([2]; 500 g ai/ha): 50; Plant response rating, Barnyardgrass ([3]; 500 g ai/ha): 70; Plant response rating, Barnyardgrass ([4]; 500 g ai/ha): 50; Plant response rating, Ryegrass, Italian ([5]; 500 g ai/ha): 0; Plant response rating, Pigweed ([6]; 500 g ai/ha): 100; Plant response rating, Wheat ([8]; 500 g ai/ha): 0; Plant response rating, Foxtail, Giant ([9]; 500 g ai/ha): 30; Plant response rating, Ryegrass, Italian ([10]; 500 g ai/ha): 20; Plant response rating, Ragweed ([11]; 500 g ai/ha): 70; Plant response rating, Kochia (kochia (Kochia scoparia) [13]; 500 g ai/ha): 100; Plant response rating, Pigweed ([14]; 500 g ai/ha): 70; Plant response rating, Galium ([15]; 500 g ai/ha): 80; Plant response rating, Blackgrass ([16]; 500 g ai/ha): 20; Plant response rating, Corn (corn (Zea mays); 500 g ai/ha): 10; Plant response rating, Foxtail, Giant ([18]; 500 g ai/ha): 100 |
